Assay results published in patent publication US20040147458A1, “Compositions to reduce exercise-induced swelling of joints” (priority 2003, published 2004).

Legend:
Humans = experiment: Swollen, sore knee joints in human subjects taking ribose; format: in vivo
Excerpt: Non-runners can also experience swelling in the joints. One subject who works in construction and does a lot of lifting frequently has swollen knees with accompanying soreness. […] A heavy equipment operator has suffered from soreness in their knees for several years following an injury to the joint. […] The third subject is a competitive “strong man” who competes in such trials as lifting heavy rocks and pulling buses. In the course of their training and competition, they have stressed their knee joints, which are frequently swollen and sore. […] On one occasion, they ingested a dose of 30 grams of ribose and the soreness in their knees disappeared within twenty minutes.

Standard Bred horses = experiment: Joint swelling after racing in Standard Bred horses given ribose before and/or after each race; format: in vivo, horse
Excerpt: The dosage given should be adjusted carefully to each animal. It has been observed that the swelling reaction is variable; some horses have a great deal of swelling after each race and others are less affected. […] Beginning with a dose of 20 gm ribose, the dosages were adjusted upward. […] Although the weight of the horse was not a factor, the state of nourishment was important. Less well-nourished horses require less ribose for the prophylaxis and therapy of joint swelling. In those horses tested by Applicant, which had been maintained on the ribose-containing supplement, it was seen that a dosage of about 100 or 200 grams of ribose was required to prevent or reduce swelling. In all mammals it may be seen that increasing doses of ribose are necessary to provide the benefit of this invention. This seeming paradox may be due to the fact that mammals receiving ribose as a maintenance dietary supplement have more energy, run faster and thus sustain more acute exercise-related trauma to the joints. It must be stressed that whether or not horses are maintained on a ribose-containing dietary supplement such as that of Applicant, in order to obtain the benefits of this invention, the dosage and timing disclosed above must be followed. Twelve Standard Bred horses, three to eight years of age, were tested. […] The swelling was treated either with cold packs or rest. Time to recovery was approximately one hour to several days. In general, the horses were rested for three days and then exercised by jogging each day, running two miles and then increasing the miles to six to eight. The test horses were put on a schedule of ribose administration in a dosage of 40 gm before each race. […] Therefore, the standard procedure was to administer the optimal dose of ribose both before and after each race. […] Time to recovery of these animals was about ten hours. […] After the horses had been on ribose maintenance for a time, all required higher doses of ribose, up to 100 gm a dose given both before and after racing, in order to show a benefit.

[1] = system: Racing dogs, generally greyhounds; experiment: Joint swelling after racing in racing dogs given ribose before the race; format: in vivo, dog
Description: Racing dogs, generally greyhounds, are also susceptible to swollen joints after racing. […] The observed dosage for a horse was approximately 100 to 300 mg per kilogram body weight. Based on this observation, a greyhound weighing 65 pounds will benefit from a dose of about two to twelve grams of ribose which is approximately 65 to 300 mg per kilogram. The dosage should be given just before each race or hard workout. […] Administration can be by any convenient means. Ribose has a slightly sweet taste and dogs will readily drink a solution of ribose in water. Alternatively, the ribose solution can be sprayed into the dog's mouth for buccal absorption. […] As for horses, the ribose should not be given more than half an hour before the race or with other food or anything else that would delay absorption.

O=C[C@H](O)[C@H](O)[C@H](O)CO [ribose, D-Ribose]
symptoms of swollen and sore knee joints (Humans; competitive strong man, doses of five to ten grams): symptoms are lessened
time until soreness in knees disappeared (Humans; competitive strong man, single dose of 30 grams): twenty
knee soreness (Humans; construction worker with swollen knees, dose of about five grams): soreness subsides
knee achiness (Humans; heavy equipment operator, soreness after joint injury, five gram dose): effective to lessen the achiness
joint swelling after race (Standard Bred horses; 40 gm ribose before each race only, twelve horses): most of the animals still showed some joint swelling
time to recovery (Standard Bred horses; animals with moderate swelling despite ribose before and after race, cold packs applied): about ten
resumption of training (Standard Bred horses; compared with animals not given ribose before and after racing): able to resume training earlier
benefit on swelling, ribose alone (Standard Bred horses; easily absorbed dose of ribose alone given immediately before and immediately after each race): additional benefit was seen
dose required to show a benefit (Standard Bred horses; horses on ribose maintenance for a time, dose given both before and after racing): up to 100 gm
joint swelling after race (Standard Bred horses; optimal dose of ribose both before and after each race): the majority of the animals showed no swelling
fraction of animals showing moderate swelling (Standard Bred horses; optimal dose of ribose both before and after each race, cold packs applied): About one-third
side-effects (Standard Bred horses; ribose at suggested levels): no side-effects
attitude of the horses after a race (subjective measure) (Standard Bred horses; ribose given only before the race): willing to play and move around their stalls
prevention or reduction of joint swelling ([1]; high dose before the race only): adequate in most cases to prevent or reduce joint swelling
expected benefit on swollen joints after racing ([1]; proper dosage of ribose, about two to twelve grams for a 65 pound greyhound): expected to give the same benefit as is shown for horses
